Measured values from paper PMC11444200, “In Vitro Evaluation of Antipseudomonal Activity and Safety Profile of Peptidomimetic Furin Inhibitors” (Biomedicines, 2024).
Where two headings read alike, the source gives them in different places.

Legend:
mice = conditions: cited from earlier work; for tolerated i.p. dose: mice
furin = conditions: read-out: Ki for furin; cited from earlier work
IPEC-J2 cells [1] = test: Amplex Red extracellular H2O2 assay in IPEC-J2 cells; format: cell-based, porcine; conditions: 50 or 100 μM, 24 h
Description: The cell line used for the experiments was the IPEC-J2 from the jejunum of porcine. The IPEC-J2 epithelial cell line was a kind gift from Dr. Jody Gookin (Department of Clinical Sciences, College of Veterinary Medicine, North Carolina State University, Raleigh, NC, USA). The cell monolayers were maintained in 75 cm^2 cell culture flasks with filtered caps (Orange Scientific, Braine-l’Alleud, Belgium) at 37 °C in a humidified atmosphere containing 5% CO2. The culture medium contained 50% Dulbecco’s modified Eagle’s medium (DMEM) and 50% Ham’s F12 Nutrient Mixture (Merck, Darmstadt, Germany) supplemented with 1.5 mmol/L HEPES, 5% fetal bovine serum (FBS) (Biocenter, Budapest, Hungary), 1% insulin/transferrin/sodium selenite medium supplement, 5 ng/mL epidermal growth factor (EGF), and 1% penicillin/streptomycin (all purchased from Invitrogen, Thermo Fisher Scientific, Waltham, MA, USA). Cells were used between passages 40 and 55. The media were changed every second day. Cells were seeded onto 96- and 24-well polystyrene cell culture plates for the cell viability and the Amplex Red/DCFH-DA assay, respectively. […]

Pseudomonas aeruginosa = test: viability (CCK-8) of MDCK cells challenged with Pseudomonas aeruginosa; format: cell-based; conditions: P. aeruginosa 10^6 CFU/mL, 5 h, inhibitor 2 h prior and during, tested 0.5-100 µM
Description: MDCK NBL-2 cells were obtained from Cytion (formerly: CLS Cell Lines Service, Eppenheim, Germany). Cells were grown in T-75 cell culture flasks, using Dulbecco’s Modified Eagle’s Medium (DMEM, Capricorn Scientific, Ebsdorfergrund, Germany) supplemented with 5% foetal bovine serum (FBS, Capricorn) and antibiotic–antimycotic solution (penicillin, streptomycin, amphotericin B; Merck, Darmstadt, Germany). The cells were subcultured and seeded in wells of 96-well microtiter plates one day prior to the experiments. After 24 h, near 100% confluence was recorded in the wells. The growth and incubation of MDCK cells were carried out in a humidified incubator at 37 °C and in the presence of 5% CO2. […] Three times single colonies from ten different blood agar plates were dissolved in 5 mL of distilled water, and colony-forming units (CFU) were counted after their serial dilution and overnight incubation on non-selective blood agar at 37 °C. […] The count of Pseudomonas aeruginosa from inoculating vials was also assessed and was in good accordance with our count prediction. […] Following the addition of the final reagent (100 µL fresh Williams’ Medium E) and a 2 h incubation period, the absorbance was measured at 450 nm using a SpectraMax iD3 (Molecular Devices, San José, CA, USA).

IPEC-J2 cells [2] = test: CCK-8 cytotoxicity assay in IPEC-J2 cells; format: cell-based, porcine; conditions: 50 µM or 100 µM, 24 h
Description: The cell line used for the experiments was the IPEC-J2 from the jejunum of porcine. The IPEC-J2 epithelial cell line was a kind gift from Dr. Jody Gookin (Department of Clinical Sciences, College of Veterinary Medicine, North Carolina State University, Raleigh, NC, USA). The cell monolayers were maintained in 75 cm^2 cell culture flasks with filtered caps (Orange Scientific, Braine-l’Alleud, Belgium) at 37 °C in a humidified atmosphere containing 5% CO2. […]
The possible cytotoxic effects of the inhibitors MI-1851 and MI-2415 (structures provided in Figure 1) in different concentrations on IPEC-J2 and those of inhibitor MI-2415 on PHHs were assessed for 24 h by performing the CCK-8 assay (Dojindo Molecular Technologies, Rockville, MD, USA). […] Following three times washing of the wells with PBS, 10 µL CCK-8 reagent mixed with 100 µL fresh Williams’ Medium E was added and the absorbance values were measured at 450 nm using the SpectraMax iD3 microplate reader (Molecular Devices, San José, CA, USA) after 2 h incubation. […]

SMILES	tolerated i.p. dose (mice)	mortality (mice; mouse, in vivo, ip, 20 mg/kg)	Ki (furin)	extracellular H2O2 production (redox balance) in IPEC-J2 cells (IPEC-J2 cells [1])	concentration with antipseudomonal effect (preserved MDCK cell viability) (Pseudomonas aeruginosa)	cell viability of IPEC-J2 cells (IPEC-J2 cells [2])	tolerated i.p. dose (mice; no higher dose was tested)
CC(C)(C)[C@H](NC(=O)[C@H](CCONC(=N)N)NC(=O)Cc1ccc(CNC(=N)N)cc1)C(=O)N[C@@H](CCONC(=N)N)C(=O)NCc1ccc2c(c1)CN=C2N [MI-2415]	15 mg/kg	one of four mice died	7.1 pM	slightly, but statistically not significantly	≥ 25 µM	did not show a significant decrease in cell viability	
CC(C)(C)[C@H](NC(=O)[C@H](CCONC(=N)N)NC(=O)Cc1ccc(CNC(=N)N)cc1)C(=O)N[C@@H](CCONC(=N)N)C(=O)NCc1ccc(C(=N)N)cc1 [MI-1851]			10.1 pM	slightly, but statistically not significantly	0.5 µM	did not show a significant decrease in cell viability	15 mg/kg
